The text below walks through data of ChEMBL document CHEMBL1201862, “PubChem BioAssay data set” (2004).

Some test systems named below: DMS-114; HOP-18; DLD-1; SNB-78; LXFL 529; M19-MEL; RXF 631; DMS-273; XF498.
What all share (experiment): NCI-60 cell line screen, 48 h

Structures are written as SMILES. Where “and” joins values, the source holds several entries; their conditions need not be identical. Equal values may be shown once.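 How tested: cells in 96-well plates exposed to compound for 48 hours at five concentrations. Abbreviation: GI50, concentration required for 50% inhibition of growth.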 Calls of active or inactive are those of the source. Cut-off read from the data, not from the text of the source: active = GI50 up to about 1.1 µM and inactive = higher.

For the compound `O=C1CC(c2ccc(Cl)cc2)=Nc2ccccc2N1`, the GI50 was 81.5 µM (inactive) with DMS-114; 40.9 µM (inactive) with HOP-18; > 100 µM (inactive) in the test on DLD-1; 86.7 µM (inactive) in the test on SNB-78; > 100 µM (inactive) in the test with LXFL 529; > 100 µM (inactive) with M19-MEL. Besides, the GI50 in the test with RXF 631 was 74.6 µM (inactive); in the test with DMS-273, 79.1 µM (inactive).

For the compound `COC1(OC)CCCCC2c3cccc(OC(C)=O)c3C21OC(C)=O` (stereo not drawn), the GI50 with DMS-114, in the test with HOP-18, in the test on DLD-1, in the test on SNB-78, in the test with LXFL 529 and in the test with M19-MEL was > 100 µM (inactive) each time. For the same compound, the results for the GI50 with XF498 and in the test on DMS-273 were 29.2 µM (inactive) and > 100 µM (inactive), respectively.

`Cc1cccc(C)c1NC(=O)CCC(=O)NNc1nnc(C)n1N`: the GI50 in the test on DMS-114, with HOP-18, in the test with DLD-1, in the test with SNB-78, with LXFL 529 and in the test with M19-MEL was > 100 µM (inactive) each time. The GI50 with RXF 631, with XF498 and in the test on DMS-273 was > 100 µM (inactive) throughout.

Take `COC(=O)c1c/c(=N\NC(=O)CC(=O)Nc2ccccc2OC)c2ccccc2o1`: the GI50 with DMS-114 is > 100 µM (inactive); with HOP-18, 15.2 µM (inactive); in the test with DLD-1 it was > 100 µM (inactive); with SNB-78, > 100 µM (inactive); in the test with LXFL 529, > 100 µM (inactive); in the test on M19-MEL, > 100 µM (inactive). Moreover, the GI50 with DMS-273 was > 100 µM (inactive).

As to `CCOC(=O)C1N(S(=O)(=O)c2ccc(C)cc2)CCC12c1ccccc1N(C(C)=O)C2C(/C=C/C(=O)OC)=C/C(=O)OC` (stereo not drawn), the GI50 in the test with DMS-114, in the test with DLD-1, in the test on SNB-78, in the test on LXFL 529, in the test on M19-MEL and in the test on XF498 was > 100 µM (inactive) each time. In addition, the GI50 with DMS-273 is 89.9 µM (inactive).

`CN(C)CCNc1ccc2ncn3c4ccccc4c(=O)c1c23`: the GI50 was 2.02 µM (inactive) with DMS-114; 1.17 µM (inactive) in the test with HOP-18; 1.96 µM (inactive) in the test with DLD-1; 3.04 µM (inactive) with SNB-78; 2.7 µM (inactive) with LXFL 529; 2.96 µM (inactive) in the test on M19-MEL.

As for `Cc1cc(O)nc(NN2C(Cl)C(=O)C2c2ccccc2O)n1` (stereo not drawn), the GI50 in the test with DMS-114 is 1.32 µM (inactive); with HOP-18 it was 1.6 µM (inactive); in the test on SNB-78 it was 24.3 µM (inactive); with LXFL 529, 2.62 µM (inactive); with M19-MEL, 3.84 µM (inactive); in the test on DMS-273, 1.96 µM (inactive).

Regarding `COC(=O)C1C(=O)N(CCc2c[nH]c3ccccc23)C[C@@H]2CCC(=O)C[C@H]12` (stereo partly drawn), the GI50 in the test with DMS-114, with DLD-1, with SNB-78, in the test with LXFL 529, with M19-MEL and in the test on RXF 631 was > 100 µM (inactive) in each case. In addition, the GI50 in the test on XF498 and in the test with DMS-273 was > 100 µM (inactive) throughout.

Take `C/C(=N\Nc1ccc([N+](=O)[O-])cc1)C(=O)N(C)Nc1ccccc1`: the GI50 in the test with DMS-114 was 48 µM (inactive); in the test with HOP-18, > 100 µM (inactive); in the test on DLD-1, > 100 µM (inactive); in the test with LXFL 529 it was 52.6 µM (inactive); in the test with M19-MEL, 69.5 µM (inactive); in the test with XF498, 63.1 µM (inactive). Moreover, in the test with DMS-273, the GI50 was 69.8 µM (inactive).

`C/C(=N\N=C(/[SeH])N1CC2CCC(CC2)C1)c1ccccn1`: the GI50 with DMS-114 was < 0.01 µM (active); with HOP-18 it was 0.294 µM (active); in the test with DLD-1, < 0.01 µM (active); in the test with SNB-78, 0.216 µM (active); with LXFL 529 it was < 0.01 µM (active); with M19-MEL it was 0.0449 µM (active). Also, the values for the GI50 with RXF 631, in the test with XF498 and with DMS-273 were 0.4 µM (active), < 0.01 µM (active) and 0.0136 µM (active), respectively.

For the compound `CC1(C)CC(=O)C(=[N+]=[N-])C(=O)C1`, the GI50 in the test on DMS-114, in the test on DLD-1, in the test with LXFL 529 and with XF498 was > 100 µM (inactive) throughout.

Take `COC(=O)C(Cc1nc2ccccc2nc1O)C(NO)C(=O)Nc1c(Cl)cc([N+](=O)[O-])cc1Cl` (stereo not drawn): the GI50 with DMS-114 is 21.2 µM (inactive); in the test on DLD-1, 28.9 µM (inactive); in the test with SNB-78 it was 40.8 µM (inactive).

For `NCCCNCCSSC/C=C\CSSCCNCCCN`, the GI50 in the test with DMS-114 was 67 µM (inactive) and 44.1 µM (inactive); in the test with HOP-18, > 100 µM (inactive); in the test on DLD-1, 37.5 µM (inactive) and 60.1 µM (inactive); in the test on LXFL 529, 34.9 µM (inactive) and 24.9 µM (inactive); with M19-MEL it was 64.6 µM (inactive); in the test with XF498, 52.6 µM (inactive) and 93.5 µM (inactive). The GI50 in the test with DMS-273 was 43.1 µM (inactive) and 44.8 µM (inactive).

Take `O=C(CCC(=O)C1Cc2ccccc2C1=O)Nc1cccc(C(F)(F)F)c1` (stereo not drawn): the GI50 in the test on HOP-18, in the test on DLD-1, in the test on SNB-78, with LXFL 529, in the test with M19-MEL and in the test on RXF 631 was > 100 µM (inactive) each time. Also, the GI50 with DMS-273 is > 100 µM (inactive).

Consider `O=C(CN(c1ccccc1)c1ccccc1)N1c2ccccc2C2C=CC=CC21` (stereo not drawn), for which the GI50 in the test with DMS-114 was 7.38 µM (inactive); in the test with HOP-18, 25.6 µM (inactive); in the test with DLD-1, 25.6 µM (inactive); with SNB-78, 36.8 µM (inactive); in the test on LXFL 529, 16 µM (inactive); in the test on M19-MEL, 21.5 µM (inactive). The GI50 is 19.6 µM (inactive) with XF498 and 22 µM (inactive) in the test on DMS-273.

Consider `COC(=O)C1=CC2OC1(C)C1(CC1)C2=O` (stereo not drawn), for which the GI50 in the test on DLD-1 was 14.3 µM (inactive); with LXFL 529, 18.5 µM (inactive); in the test with M19-MEL it was 21 µM (inactive); in the test with XF498, 14.7 µM (inactive); in the test with DMS-273, > 10 µM (inactive).

For the compound `O=C(Nc1ccc(Cl)c(Cl)c1)C1C(=O)N(c2ccc(Cl)c(Cl)c2)C(=O)/C1=N\O` (stereo not drawn), the GI50 is 30.3 µM (inactive) in the test on DMS-114; > 100 µM (inactive) in the test on HOP-18; > 100 µM (inactive) in the test with DLD-1; > 100 µM (inactive) in the test on SNB-78; > 100 µM (inactive) with LXFL 529; 31.8 µM (inactive) in the test with M19-MEL. Moreover, in the test on DMS-273, the GI50 was > 100 µM (inactive).

Consider `NC(=S)N/N=C1\CCCC\C1=C/c1ccccc1`, for which the GI50 is 37.3 µM (inactive) in the test on DMS-114; 38.2 µM (inactive) in the test on HOP-18; 33.2 µM (inactive) in the test on DLD-1; > 100 µM (inactive) in the test with SNB-78; 31.4 µM (inactive) in the test on LXFL 529; 81.1 µM (inactive) in the test with M19-MEL. The GI50 is 89.3 µM (inactive) in the test with RXF 631 and 18.5 µM (inactive) with DMS-273.

Turning to `CC1CC[C@]2(C(=O)O)CCC3(COC(=O)/C=C\c4ccc(O)cc4)C(=CCC4[C@@]5(C)CC[C@H](O)C(C)(C)C5CC[C@]43C)[C@@H]2[C@H]1C` (stereo partly drawn), the GI50 was 25.7 µM (inactive) with DMS-114; 27.5 µM (inactive) in the test on HOP-18; 10.8 µM (inactive) in the test with DLD-1; > 100 µM (inactive) in the test with SNB-78; 22.7 µM (inactive) in the test with LXFL 529; 21.7 µM (inactive) in the test with M19-MEL. The GI50 in the test with RXF 631 is 24.4 µM (inactive); in the test with DMS-273, 20.3 µM (inactive).

Turning to `CC1CC2C3CC(F)C4=CC(=O)C=CC4(C)C3(F)C(O)CC2(C)C1(O)C(=O)CO` (stereo not drawn), the GI50 in the test with DMS-114, with DLD-1, in the test with SNB-78, in the test on M19-MEL, with RXF 631 and in the test with XF498 was > 100 µM (inactive) throughout. Further, in the test on DMS-273, the GI50 was > 100 µM (inactive).

`COc1ccc(/C=c2/sc3n(c2=O)NC2(CCCCC2)NN=3)cc1`: the GI50 in the test on DLD-1, in the test with SNB-78, with LXFL 529, in the test on M19-MEL, in the test with XF498 and in the test on DMS-273 was > 100 µM (inactive) throughout.

Consider `CCOC(=O)C(C)(C)Oc1ccc2c(=O)cc(-c3ccccc3)oc2c1`, for which the GI50 was 17.9 µM (inactive) with DMS-114; 22.8 µM (inactive) in the test on HOP-18; 26.7 µM (inactive) in the test on SNB-78; 19 µM (inactive) in the test with LXFL 529; 20.7 µM (inactive) in the test with M19-MEL.

In the case of `CCOC(=O)CCC(NC(=O)c1ccc(/N=C/c2nc3cc(C(F)(F)F)ccc3nc2-c2ccccc2)cc1)C(=O)OCC` (stereo not drawn), the GI50 is 34.3 µM (inactive) in the test on DMS-114; > 100 µM (inactive) in the test on HOP-18; > 50 µM (inactive) with DLD-1; 10 µM (inactive) with SNB-78; 43.1 µM (inactive) in the test on LXFL 529; > 50 µM (inactive) in the test with M19-MEL. Moreover, the values for the GI50 in the test on XF498 and in the test with DMS-273 were 2.81 µM (inactive) and > 100 µM (inactive), respectively.

Regarding `CCOc1ccccc1NC(=O)C(=O)CC(=O)c1c(C)[n+]([O-])c2ccccc2[n+]1[O-]`, the GI50 in the test with DMS-114 was > 100 µM (inactive); in the test with HOP-18, 46.5 µM (inactive); with SNB-78 it was > 100 µM (inactive); with LXFL 529 it was > 100 µM (inactive); in the test on M19-MEL it was 50.9 µM (inactive); with DMS-273 it was > 100 µM (inactive).

Take `CC(=O)NC1=C(NCCC(C)C)C(=O)c2ccccc2C1=O`: the GI50 with DLD-1, with SNB-78, with LXFL 529, in the test with M19-MEL, with XF498 and in the test with DMS-273 was > 50 µM (inactive) each time.

Take `NC(=O)c1c2c(cc3c(=O)c4ccccc4[nH]c13)CCCC2`: the GI50 in the test with DMS-114 is > 100 µM (inactive); in the test with HOP-18 it was > 100 µM (inactive); in the test with DLD-1 it was > 73.1 µM (inactive); with LXFL 529, > 100 µM (inactive); in the test on M19-MEL, > 100 µM (inactive); with RXF 631, > 100 µM (inactive). For the same compound, the GI50 in the test with XF498 and with DMS-273 was > 100 µM (inactive) in each case.
